According to patent US5397777A, “Meso poly(4-sulfonatophenyl) porphines as MRI image enhancing agents” (Health Research, Inc., priority 1993, dated 1995):
Read-outs that look alike come from different tables or passages of the source.

Tests used:
[1] = mouse, in vivo; for Ratios of the concentration of porphyrins in liver to kidney / Ratios of the concentration of porphyrins in tumor to muscle: iv
Procedure: Measured concentrations are averages for two mice.
Biodistribution (liver, kidney, muscle and tumor) of the four manganese porphyrins was measured by absorption spectroscopy of ammonia/methanol mixtures and expressed as μg metalloporphyrin per gram of tissue (wet weight). Quantitation was based upon the extinction coefficient for each porphyrin as predetermined in the extraction solutions.
SMT-F (spontaneous mammary carcinoma) was maintained in the laboratory on a biweekly schedule in which 1 mm^3 pieces of tumor were implanted in the flank of DBA/2HaRos-d^+Ha mice. Porphyrins were delivered by intravenous injection in the tail vein.
The distribution of each porphyrin in kidney, liver, muscle and tumor was determined at 1 and 24 hours post injection.

[2] = tested on: SMT-F (spontaneous mammary carcinoma); test: Relaxivity in excised tumor tissue at 10.7 MHz; format: in vivo, DBA/2HaRos-d^+Ha mice; settings: 24 hours post injection; for Relaxivity of tumors excised from mice (relaxation rate of treated minus untreated tissue divided by porphyrin concentration in tumor tissue): 100 mg/kg, 10.7 MHz, 37° C.
Procedure: Relaxation and biodistribution measurements were carried out using procedures known to those skilled in the art, e.g., Fiel et. al., supra. Briefly, the longitudinal relaxation time (T1) for excised tissue was measured at 37° C., with a Praxis II™ relaxometer (Praxis Corporation, San Antonio, Tex.) operating at 10.7 MHz and employing a saturation recovery pulse sequence.
Relaxivity in tumor tissue was measured for each porphyrin on excised tissue at 10.7 MHz, 24 hours post injection of a 100 mg/kg dose (table 3).
*Expressed as the relaxation rate of tissue from treated animals (24 hrs)
minus the relaxation rate of tissue from untreated animal (control)
divided by the concentration of porphyrin in the tumor tissue.

[3] = tested on: SMT-F (spontaneous mammary carcinoma); test: Magnetic resonance imaging of tumor bearing mouse, signal intensity; format: in vivo, DBA/2HaRos-d^+Ha mice; settings: for tumor appearance in MR image / kidney signal in MR image / Normalized Signal Intensity, confidence interval / Normalized Signal Intensity, range / Normalized Signal Intensity, mean ± SD: 100 mg/kg; for kidney signal in MR image: region of the pelvis; for Normalized Signal Intensity, confidence interval: 99% (t test); for Normalized Signal Intensity, range: control 0.652-0.701; for Normalized Signal Intensity, mean ± SD: control 0.685 ± .015
Procedure: Control (upper left), 1 hour post injection (100 mg/kg) of Mn(III)TPPS3 (upper right), and 24 hours post injection (lower left). […] Image intensity working standards (top to bottom) 28 mM CuSO4 in 1N HCl, 5 mM GdDTPA in isotonic saline and baby oil.
Magnetic resonance images were made using a custom-built small animal (mouse) transmitter/receiving coil similar to the design of Henkelman et al., Small Animal Imaging With A Clinical Imager. Magn. Reson. Med. 4:61-66; 1987, and tuned to 15 MHz for use with a Diasonics™ 0.35 Tesla clinical scanner. Images were made using a TR of 500 msec. and a TE of 50 msec. with a slice thickness of 2.5 mm.
Images were analyzed using a Hewlett Packard Vectra™ ES/12 personal computer with high resolution VGA graphics after digitization via a Dage 70™ camera with Vidicon tube utilizing a Matrox™ MVP AT image capture/display board. Signal intensity measurements were made from selected areas of interest (AOI) using Image-Pro II™ software (Media Cybernetics, Silver Spring, MD). Any suitable similar apparatus and software can of course be used. Generally an entire section (image slice) of tumor was circumscribed using a free-form area of interest option. The area of interest was then represented by a histogram relating pixel frequency to gray level. Each gray level (0-255) was multiplied by its associated frequency. The resulting products were summed and divided by the area of interest in units of centimeter squared. The procedure was repeated three times to determine a mean value for the tumor at each time period. The same procedure was carried out for the midrange working standard (5 mM Gd DTPA).
The visual differences (intensity) noted between control and treated (FIG. 2) were quantitated using mean intensity values normalized to corresponding working standards. The results (table 4) indicate that differences between control and enhanced and between one and 24 hrs are significant. Signal intensity measured at 24 hrs is 21% higher than control and 7% higher than the value determined at 1 hr. Note that this analysis ignores the fact that the increase in intensity at 24 hrs is actually concentrated into a relatively small area of the tumor by averaging over the entire section.

L1210 cells = tested on: L1210 cells; set-up: unit not given beside the values; settings: mouse, 48 h
[4] = Hydrophobicity of the porphyrins; format: physicochemical; settings: rank within the series of four

Q: What does the source list for `O=S(=O)([O-])c1ccc(-c2c3nc(c(-c4ccc(S(=O)(=O)[O-])cc4)c4ccc([nH]4)c(-c4ccc(S(=O)(=O)[O-])cc4)c4nc(c(-c5ccccc5)c5ccc2[nH]5)C=C4)C=C3)cc1.[Mn+3]` [MnTPPS3, manganese III meso-[tri(4-sulfonatophenyl)phenyl]porphine]?
A: concentration in kidney [1]: high concentration found in the kidney at 1 hour; kidney clearance [1]: cleared rapidly and concentrated in the urine; Ratios of the concentration of porphyrins in liver to kidney ([1]; 60 min): 0.7; Ratios of the concentration of porphyrins in tumor to muscle ([1]; 60 min): 3.2; Ratios of the concentration of porphyrins in liver to kidney ([1]; 1440 min): 1.8; tumor uptake, tumor/muscle ratio and relaxivity in tumor tissue, overall ranking [2]: superior to all others in regard to tumor uptake, tumor/muscle ratio and relaxivity in tumor tissue; tumor appearance in MR image ([3]; 1 hour post injection): the tumor appears somewhat brighter than the control, although it remains homogeneous; kidney signal in MR image ([3]; 1 hour post injection): high intensity signal in the region of the pelvis; kidney signal in MR image ([3]; 1 hour post injection, listed as Mn(III)TPPS3, 100 mg/kg): concentration of porphyrin in kidneys at 1 hour; Normalized Signal Intensity, confidence interval ([3]; 1 hr post injection, tumor): 0.769-0.784; Normalized Signal Intensity, range ([3]; 1 hr post injection, tumor): 0.766-0.780; Normalized Signal Intensity, mean ± SD ([3]; 1 hr post injection, tumor): 0.774 ± .006; tumor appearance in MR image ([3]; 24 hours post injection): the tumor appears very heterogeneous; tumor appearance in MR image ([3]; 24 hours post injection, listed as Mn(III)TPPS3, 100 mg/kg): heterogeneous signal enhancement in tumor at 24 hours; Normalized Signal Intensity, confidence interval ([3]; 24 hrs post injection, tumor): 0.815-0.841; Normalized Signal Intensity, range ([3]; 24 hrs post injection, tumor): 0.820-0.836; Normalized Signal Intensity, mean ± SD ([3]; 24 hrs post injection, tumor): 0.828 ± .007; Signal intensity increase over the value at 1 hr ([3]; 24 hrs vs 1 hr, tumor): 7%; Signal intensity increase over control ([3]; 24 hrs vs control, tumor): 21%; LD50 for L1210 cells in culture at day 2 (L1210 cells): 1010

Q: For `O=S(=O)([O-])c1ccc(-c2c3nc(c(-c4ccc(S(=O)(=O)[O-])cc4)c4ccc([n-]4)c(-c4ccc(S(=O)(=O)[O-])cc4)c4ccc([n-]4)c(-c4ccc(S(=O)(=O)[O-])cc4)c4nc2C=C4)C=C3)cc1.[Mn+3]` [MnTPPS4, manganese III meso-tetra(4-sulfonatophenyl)porphine, reference compound], which “Ratios of the concentration of porphyrins in liver to kidney” value (“Ratios of the concentration … to kidney” below) ([1]; 60 min) is on record?
A: 0.3

Q: What about the “Ratios of the concentration … to kidney” value ([1]; 1440 min) of the same compound?
A: 0.3

Q: What about the “Relaxivity of tumors excised from mice (relaxation rate of treated minus untreated tissue divided by porphyrin concentration in tumor tissue)” value [2] of the same compound?
A: 0.207 ± .004

Q: What about the hydrophobicity [4] of the same compound?
A: the least hydrophobic porphyrin

Q: Which “Ratios of the concentration … to kidney” value ([1]; 60 min) does the source give for “manganese III meso-[cis-di(4-sulfonatophenyl)diphenyl]porphine [MnTPPS2(cis)]” here?
A: 6.4

Q: What about the “Ratios of the concentration of porphyrins in tumor to muscle” value ([1]; 60 min) of the same compound?
A: 2.8

Q: What about the “Ratios of the concentration … to kidney” value ([1]; 1440 min) of the same compound?
A: 5.5

Q: And the “Ratios of the concentration of porphyrins in tumor to muscle” value ([1]; 1440 min)?
A: 9.7

Q: What about the “Relaxivity of tumors excised from mice (relaxation rate of treated minus untreated tissue divided by porphyrin concentration in tumor tissue)” value ([2]; measurement from one mouse) of the same compound?
A: 0.361

Q: What about the “tumor uptake, tumor/muscle ratio and relaxivity in tumor tissue, overall ranking” value [2] of the same compound?
A: superior to MnTPPS4

Q: Which results are given for “manganese III meso-[trans-di(4-sulfonato-phenyl)diphenyl]porphine [MnTPPS2(trans)]”?
A: Ratios of the concentration of porphyrins in liver to kidney ([1]; 60 min): 4.4; Ratios of the concentration of porphyrins in tumor to muscle ([1]; 60 min): 2.3; Ratios of the concentration of porphyrins in liver to kidney ([1]; 1440 min): 3.8; Ratios of the concentration of porphyrins in tumor to muscle ([1]; 1440 min): 11.6; Relaxivity of tumors excised from mice (relaxation rate of treated minus untreated tissue divided by porphyrin concentration in tumor tissue) [2]: 0.296 ± .045; tumor uptake, tumor/muscle ratio and relaxivity in tumor tissue, overall ranking [2]: superior to MnTPPS4
